{
  "source": "patent US20100099737A1",
  "about": "“COMPOSITIONS AND METHODS FOR TREATING MYELOSUPPRESSION” (priority 2006, published 2010)",
  "format_in_all_cases": "cell-based, human",
  "key": {"[1]": {"tested_on": "TF1 cells", "experiment": "Proliferation of siRNA-transfected TF1 cells with IL-5, [3H]-thymidine incorporation", "conditions": "sub-optimal levels of IL-5, 2 days after siRNA transfection, vs siNS, FIG. 1H", "experimental": "(§1) TF1 cells transfected with siSHIP (triangles) or siNS (squares) were cultured in the absence of growth factors and the total number of viable cells counted daily by trypan blue exclusion (FIG. 1G), TF1 cells were cultured in the presence of increasing concentrations of the growth promoting cytokine IL-5, 2 days after siRNA transfection. Proliferation of siSHIP (diamonds) and control siNS (solid diamonds) transfected TF-1 cells was measured by [^3H]-thymidine incorporation (FIG. 1H)."}, "[2]": {"tested_on": "TF1 hemopoietic progenitor cell line", "experiment": "Resistance of siRNA-transfected TF1 cells to chemotherapy drugs, [3H]-thymidine incorporation", "conditions": "4 days after transfection, cisplatin, doxorubicin and taxotere, complete growth media, read 2 days later, vs control siRNA, FIG. 2", "experimental": "The TF1 hemopoietic progenitor cell line was transfected with SHIP1 siRNA or control siRNA as in FIG. 1. After 4 days, the cells were assessed at the indicated concentrations of cisplatin, doxorubicin and taxotere in the presence of complete growth media, [^3H]-thymidine incorporation was measured 2 days later."}, "[3]": {"tested_on": "phospho PKB (Ser 473)", "experiment": "Immunoblot of PKB / phospho PKB (Ser 473) in siRNA-transfected TF1 cells stimulated with GM-CSF", "conditions": "vs siNS, FIG. 1F", "source_text": "TF1 cells transfected with siSHIP ([…], SEQ ID NO: 11) or siNS were stimulated with the cytokine GM-CSF for the indicated length of time."}, "[4]": {"tested_on": "TF1 cells", "experiment": "Survival of siRNA-transfected TF1 cells without growth factors, viable cells by trypan blue exclusion", "conditions": "absence of growth factors, counted daily by trypan blue exclusion, vs siNS, FIG. 1G", "experimental": "as §1"}},
  "data": [
    {"substance": "siSHIP: siRNA to human SHIP1 mRNA (NM_001017915), position 2437, AAGAGTCAGGAAGGAGAAAAT (SEQ ID NO: 11) (listed as DNA, chemistry not given here)", "values": [
      {"measurement": "proliferation ([3H]-thymidine incorporation)", "setting": "[1]", "result": "considerably increased"},
      {"measurement": "resistance to chemotherapy drugs ([3H]-thymidine incorporation)", "setting": "[2]", "result": "significantly more resistant"},
      {"measurement": "activation of the PIP3 dependent kinase PKB (phospho PKB Ser 473)", "setting": "[3]", "result": "enhanced the activation"},
      {"measurement": "survival (total number of viable cells)", "setting": "[4]", "result": "considerably increased survival"}
    ]}
  ]
}
